Experimental data reported in patent US7964376B2, “Chimeric proteins and their use in methods to screen for sweet taste modulators” (Givaudan SA, priority 2006, dated 2011).
Residues, ends and D or L forms follow the SMILES beside them.

Assays:
hCaSR = target: T1, hCaSR (Homo sapiens, UniProt P41180); experiment: Fluo-4 calcium assay, transiently transfected HEK293T/Gα16-gustducin 44 cells (Example 6a); type: cell-based; details: for hCaSR AVG (net increase in fluorescence over baseline): mean of six replicates, Calcium Chloride (2 mM), Sucralose (0.5 mM), aspartame (0.85 mM), perillartine (50 μM), cinnamonitrile (100 EM), cyclamate (1 mM), NDHC (0.33 mM)
T1 sequence (P41180 20-1078): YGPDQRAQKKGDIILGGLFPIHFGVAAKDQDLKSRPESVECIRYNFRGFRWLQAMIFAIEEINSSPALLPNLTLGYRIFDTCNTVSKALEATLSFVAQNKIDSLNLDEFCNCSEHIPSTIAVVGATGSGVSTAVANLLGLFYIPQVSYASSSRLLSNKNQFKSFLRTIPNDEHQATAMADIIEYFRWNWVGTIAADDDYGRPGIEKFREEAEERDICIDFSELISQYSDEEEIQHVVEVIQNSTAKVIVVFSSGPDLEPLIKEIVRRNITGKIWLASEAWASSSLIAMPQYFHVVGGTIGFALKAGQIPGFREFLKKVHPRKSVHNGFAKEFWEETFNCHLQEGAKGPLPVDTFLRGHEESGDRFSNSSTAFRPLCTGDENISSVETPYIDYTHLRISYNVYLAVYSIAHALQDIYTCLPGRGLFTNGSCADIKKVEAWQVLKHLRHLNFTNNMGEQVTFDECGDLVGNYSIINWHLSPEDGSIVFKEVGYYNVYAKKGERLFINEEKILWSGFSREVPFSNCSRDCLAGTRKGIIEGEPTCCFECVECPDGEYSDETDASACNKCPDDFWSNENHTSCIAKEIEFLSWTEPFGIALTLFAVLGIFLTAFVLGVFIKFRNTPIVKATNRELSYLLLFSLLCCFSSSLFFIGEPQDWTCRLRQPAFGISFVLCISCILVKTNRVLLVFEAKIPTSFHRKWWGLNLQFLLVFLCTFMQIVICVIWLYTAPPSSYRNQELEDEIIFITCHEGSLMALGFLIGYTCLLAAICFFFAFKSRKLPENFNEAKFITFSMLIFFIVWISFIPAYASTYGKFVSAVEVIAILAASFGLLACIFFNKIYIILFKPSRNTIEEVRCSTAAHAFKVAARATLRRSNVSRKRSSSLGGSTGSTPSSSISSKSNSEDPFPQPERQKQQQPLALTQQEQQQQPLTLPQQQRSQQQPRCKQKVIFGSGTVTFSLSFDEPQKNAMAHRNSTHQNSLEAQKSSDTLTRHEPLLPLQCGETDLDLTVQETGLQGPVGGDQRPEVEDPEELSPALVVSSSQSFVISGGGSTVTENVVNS
Text: The hCaSR vector is used as positive control for a GPCR that is sensitive to calcium, as it is sensitive to calcium and the calcium binding site lies in the VFT of this receptor, which is where the VFT for the chimera is derived from.
(§1) The following ligands were used for to stimulate the transfected cells in the concentrations as indicated in brackets: […]

[1] = test system: Mock transfected HEK293T/Gα16-gustducin 44 cells; experiment: Fluo-4 calcium assay, negative control mock transfection (Examples 6a, 6b); type: cell-based, human; details: mean of six replicates, Calcium Chloride (2 mM), Sucralose (0.5 mM), perillartine (50 μM); for Neg. control (mock transfection) AVG (net increase in fluorescence over baseline): Example 6a, aspartame (0.85 mM), cinnamonitrile (100 EM), cyclamate (1 mM), NDHC (0.33 mM); for Neg. control (mock transfection) AVG (mean ΔF/F): Example 6b
Text: as §1

[2] = target: T2, T1R2/T1R3 sweet heterodimer (Homo sapiens, UniProt Q7RTX0+Q8TE23, C757R); experiment: Fluo-4 calcium assay, transiently transfected HEK293T/Gα16-gustducin 44 cells (Examples 6a, 6b); type: cell-based; details: Example 6b; mean of six replicates; Calcium Chloride (2 mM), Sucralose (0.5 mM), perillartine (50 μM)
T2 construct: expressed in transfected cells; host or cells: HEK293T cells stably expressing Ga16-gustducin 44, transient co-transfection of pcDNA3.1 constructs
T2 sequence (Q8TE23 20-839): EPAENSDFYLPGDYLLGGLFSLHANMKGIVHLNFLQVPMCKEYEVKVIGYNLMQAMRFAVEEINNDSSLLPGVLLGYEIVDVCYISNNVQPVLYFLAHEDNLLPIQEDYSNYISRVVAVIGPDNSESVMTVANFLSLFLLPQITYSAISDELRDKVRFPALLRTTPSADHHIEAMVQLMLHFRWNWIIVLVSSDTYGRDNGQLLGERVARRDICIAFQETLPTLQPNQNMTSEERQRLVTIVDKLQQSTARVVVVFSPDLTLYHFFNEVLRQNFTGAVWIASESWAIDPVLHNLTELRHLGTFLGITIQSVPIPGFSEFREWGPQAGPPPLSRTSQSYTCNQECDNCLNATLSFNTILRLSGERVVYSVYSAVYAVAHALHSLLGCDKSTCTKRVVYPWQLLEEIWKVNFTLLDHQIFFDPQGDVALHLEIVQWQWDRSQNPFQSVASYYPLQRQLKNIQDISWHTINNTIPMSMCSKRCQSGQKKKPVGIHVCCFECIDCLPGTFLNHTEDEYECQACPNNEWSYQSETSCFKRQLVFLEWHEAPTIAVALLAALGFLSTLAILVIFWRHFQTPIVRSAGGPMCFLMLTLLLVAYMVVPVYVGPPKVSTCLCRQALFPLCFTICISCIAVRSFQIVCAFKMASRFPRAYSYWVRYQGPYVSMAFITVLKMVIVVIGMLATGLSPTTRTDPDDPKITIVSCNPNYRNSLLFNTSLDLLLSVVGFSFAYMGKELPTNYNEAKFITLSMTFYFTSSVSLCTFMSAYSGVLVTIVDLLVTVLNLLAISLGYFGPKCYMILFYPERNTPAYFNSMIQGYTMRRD
T2 sequence (Q7RTX0 21-852 C757R): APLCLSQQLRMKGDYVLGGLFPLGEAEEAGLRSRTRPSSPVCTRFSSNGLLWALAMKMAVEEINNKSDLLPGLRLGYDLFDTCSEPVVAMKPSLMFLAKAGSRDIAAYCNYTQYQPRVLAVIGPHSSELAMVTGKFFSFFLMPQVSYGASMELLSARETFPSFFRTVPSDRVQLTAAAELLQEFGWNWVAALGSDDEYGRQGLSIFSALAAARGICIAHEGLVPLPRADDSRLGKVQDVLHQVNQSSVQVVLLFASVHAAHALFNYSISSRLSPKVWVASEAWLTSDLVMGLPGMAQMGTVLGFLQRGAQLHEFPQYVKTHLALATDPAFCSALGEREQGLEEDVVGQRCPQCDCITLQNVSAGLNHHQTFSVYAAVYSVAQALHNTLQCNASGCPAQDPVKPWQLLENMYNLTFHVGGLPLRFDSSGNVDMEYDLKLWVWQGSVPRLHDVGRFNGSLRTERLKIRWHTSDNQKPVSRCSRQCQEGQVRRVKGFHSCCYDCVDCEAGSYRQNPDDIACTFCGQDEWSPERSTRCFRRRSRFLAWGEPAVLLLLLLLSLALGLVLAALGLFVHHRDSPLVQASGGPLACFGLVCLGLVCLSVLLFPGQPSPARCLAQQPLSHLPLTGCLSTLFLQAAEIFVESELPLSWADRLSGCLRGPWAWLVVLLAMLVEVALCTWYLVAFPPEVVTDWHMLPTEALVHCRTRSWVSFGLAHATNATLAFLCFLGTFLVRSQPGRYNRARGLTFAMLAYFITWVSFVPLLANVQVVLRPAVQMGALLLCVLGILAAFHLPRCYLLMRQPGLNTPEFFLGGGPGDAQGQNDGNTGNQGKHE
Text: as §1

[3] = target: T3, CSR::T1R2-b/CSR::T1R3-b chimeric heterodimer (Homo sapiens, UniProt P41180+Q7RTX0+Q8TE23); experiment: Fluo-4 calcium assay, transiently transfected HEK293T/Gα16-gustducin 44 cells (Example 6b); details: mean of six replicates; Calcium Chloride (2 mM), Sucralose (0.5 mM), perillartine (50 μM)
T3 sequence (P41180+Q8TE23 with tags, fused parts or gaps): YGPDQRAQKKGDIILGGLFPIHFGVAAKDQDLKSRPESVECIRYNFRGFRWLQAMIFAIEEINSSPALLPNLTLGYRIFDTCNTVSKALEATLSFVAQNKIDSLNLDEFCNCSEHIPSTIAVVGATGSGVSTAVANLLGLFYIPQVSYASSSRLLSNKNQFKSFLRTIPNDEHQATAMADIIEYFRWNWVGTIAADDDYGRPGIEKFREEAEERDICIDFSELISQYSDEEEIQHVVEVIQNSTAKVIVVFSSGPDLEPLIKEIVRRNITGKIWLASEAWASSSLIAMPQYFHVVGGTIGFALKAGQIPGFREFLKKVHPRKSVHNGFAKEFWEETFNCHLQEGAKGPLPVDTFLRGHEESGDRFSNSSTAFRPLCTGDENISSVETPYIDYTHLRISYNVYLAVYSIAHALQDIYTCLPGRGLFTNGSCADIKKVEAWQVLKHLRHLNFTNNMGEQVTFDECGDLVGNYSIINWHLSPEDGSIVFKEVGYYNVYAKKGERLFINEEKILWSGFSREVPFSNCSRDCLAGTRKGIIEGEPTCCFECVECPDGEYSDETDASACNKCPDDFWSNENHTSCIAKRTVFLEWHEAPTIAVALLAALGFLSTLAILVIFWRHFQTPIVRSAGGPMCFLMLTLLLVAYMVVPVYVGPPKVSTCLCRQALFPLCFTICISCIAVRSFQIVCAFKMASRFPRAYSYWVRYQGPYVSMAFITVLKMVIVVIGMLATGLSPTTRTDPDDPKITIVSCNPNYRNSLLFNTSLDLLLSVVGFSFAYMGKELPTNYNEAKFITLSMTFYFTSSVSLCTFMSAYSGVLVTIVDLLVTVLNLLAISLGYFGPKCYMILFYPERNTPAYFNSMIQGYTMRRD
T3 sequence (P41180+Q7RTX0 with tags, fused parts or gaps): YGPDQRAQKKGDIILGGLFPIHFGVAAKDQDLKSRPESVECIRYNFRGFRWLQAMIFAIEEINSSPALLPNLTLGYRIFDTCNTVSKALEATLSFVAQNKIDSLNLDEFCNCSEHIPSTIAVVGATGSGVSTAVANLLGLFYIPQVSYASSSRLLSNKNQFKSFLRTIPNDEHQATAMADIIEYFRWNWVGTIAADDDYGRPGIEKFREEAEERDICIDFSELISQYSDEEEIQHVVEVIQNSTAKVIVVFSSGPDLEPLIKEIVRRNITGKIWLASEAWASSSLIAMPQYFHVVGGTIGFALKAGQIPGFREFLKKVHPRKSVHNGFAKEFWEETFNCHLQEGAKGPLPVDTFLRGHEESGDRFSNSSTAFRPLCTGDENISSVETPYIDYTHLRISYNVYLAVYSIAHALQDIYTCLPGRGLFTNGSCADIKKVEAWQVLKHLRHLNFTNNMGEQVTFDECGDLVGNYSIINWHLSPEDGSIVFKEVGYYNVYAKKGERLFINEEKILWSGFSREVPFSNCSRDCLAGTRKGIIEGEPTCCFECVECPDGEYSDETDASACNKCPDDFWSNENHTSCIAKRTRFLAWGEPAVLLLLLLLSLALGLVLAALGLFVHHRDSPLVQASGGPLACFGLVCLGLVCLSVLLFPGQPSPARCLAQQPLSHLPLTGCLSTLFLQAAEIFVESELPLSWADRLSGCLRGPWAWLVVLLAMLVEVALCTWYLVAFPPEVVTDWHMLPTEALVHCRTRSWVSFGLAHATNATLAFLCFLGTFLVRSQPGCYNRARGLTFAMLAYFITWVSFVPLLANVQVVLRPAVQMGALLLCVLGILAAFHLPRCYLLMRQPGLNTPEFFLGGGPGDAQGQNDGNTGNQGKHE
Description: (§2) Fluo-4 is a fluorescent indicator for intracellular calcium and allows to determine changes in the calcium concentration, in particular an increase in response to receptor activation occurring after ligand addition.
(§3) Black, clear-bottom 96-well plates were used for all assays. They were seeded the day before with 8500 transfected cells per well and maintained at 37° C. overnight in an a growth medium appropriate for the cells used. For HEK293 cells, Dulbecco's Modified Eagle medium containing high glucose, L-glutamine, pyroxidine hydrochloride, and supplemented with 10% fetal bovine serum was used for growth and maintenance of the HEK293 cells.
(§4) After the initial 1 hour loading period, the plates were washed 5 times with 100 μl per well of reduced calcium C1 buffer using an automated plate washer (BioTek) and after washing, the plate was further incubated for 30 minutes at room temperature in the dark to allow for complete de-esterification of the Fluo-4-AM. The buffer solutions were discarded, the plate was washed 5 times with 100 μl reduced calcium C1 wash buffer and finally the cells were reconstituted in 180 μl of reduced calcium C1 wash buffer.
(§5) For assay reading, the plate was placed in a FLIPR (fluorescence imaging plate reader (FLIPR-Tetra, Molecular Devices)), and receptor activation was initiated following addition of 20 μl of a 10× concentrated ligand stock solution, which were prepared in reduced calcium C1 buffer.
(§6) Receptor activation is given in relative fluorescence units (RFU) and is defined by the following equation: Fluorescence Increase=Maximum Fluorescence−baseline fluorescence, wherein the baseline fluorescence represents the mean fluorescence calculated for the first 10 to 15 seconds prior to ligand addition.
As a negative control, mock transfected cells were exposed to the same concentration of ligand and the concentration of calcium traces not corresponding to a signal was determined. […]
(§7) The calcium mobilization signals obtained are increase in peak fluorescence (F) normalized to the baseline fluorescence (F0). […]

CSR::T1R2-b homomer = target: T4, CSR::T1R2-b homomer (Homo sapiens, UniProt P41180+Q8TE23); experiment: as above; details: mean of six replicates; Calcium Chloride (2 mM), Sucralose (0.5 mM), perillartine (50 μM)
T4 sequence (P41180+Q8TE23 with tags, fused parts or gaps): T3 sequence (P41180+Q8TE23 with tags, fused parts or gaps)
Description: as §2, §3, §4, §5, §6
As a negative control, mock transfected cells were exposed to the same concentration of ligand and the concentration of calcium traces not corresponding to a signal was determined.
as §7

Structure (SMILES): COC(=O)[C@H](Cc1ccccc1)NC(=O)[C@@H](N)CC(=O)O [Aspartame] (H-Asp-Phe-OMe)
- hCaSR AVG (net increase in fluorescence over baseline) (hCaSR): 41 RFU
- Neg. control (mock transfection) AVG (net increase in fluorescence over baseline) [1]: −125 RFU

Structure (SMILES): [Ca+2].[Cl-].[Cl-] [Calcium, Calcium Chloride]
- response of hCaSR (in words) (hCaSR; Example 6a): responded
- hCaSR AVG (net increase in fluorescence over baseline) (hCaSR): 7610 RFU
- T1R2/T1R3 AVG (mean ΔF/F) [2]: 0.19 ΔF/F
- Neg. control (mock transfection) AVG (net increase in fluorescence over baseline) [1]: 1570 RFU
- Neg. control (mock transfection) AVG (mean ΔF/F) [1]: 0.20 ΔF/F
- CSR::T1R2-b/CSR::T1R3-b AVG (mean ΔF/F) [3]: 0.46 ΔF/F
- CSR::R2-b alone AVG (mean ΔF/F) (CSR::T1R2-b homomer): 0.424 ΔF/F

Structure (SMILES): N#CC=Cc1ccccc1 [Cinnamonitrile]
- hCaSR AVG (net increase in fluorescence over baseline) (hCaSR): 197 RFU

Structure (SMILES): C=C(C)[C@@H]1CC=C(/C=N/O)CC1 [Perillartine]
- hCaSR AVG (net increase in fluorescence over baseline) (hCaSR): 73 RFU
- T1R2/T1R3 AVG (mean ΔF/F) [2]: 0.5 ΔF/F
- Neg. control (mock transfection) AVG (net increase in fluorescence over baseline) [1]: −379 RFU
- Neg. control (mock transfection) AVG (mean ΔF/F) [1]: 0.06 ΔF/F
- CSR::T1R2-b/CSR::T1R3-b AVG (mean ΔF/F) [3]: 0.169 ΔF/F
- CSR::R2-b alone AVG (mean ΔF/F) (CSR::T1R2-b homomer): 0.11 ΔF/F

Structure (SMILES): OC[C@H]1O[C@H](O[C@]2(CCl)O[C@H](CCl)[C@@H](O)[C@@H]2O)[C@H](O)[C@@H](O)[C@H]1Cl [Sucralose]
- hCaSR AVG (net increase in fluorescence over baseline) (hCaSR): 22 RFU
- T1R2/T1R3 AVG (mean ΔF/F) [2]: 0.12 ΔF/F
- Neg. control (mock transfection) AVG (mean ΔF/F) [1]: 0.03 ΔF/F
- CSR::T1R2-b/CSR::T1R3-b AVG (mean ΔF/F) [3]: 0.017 ΔF/F
- CSR::R2-b alone AVG (mean ΔF/F) (CSR::T1R2-b homomer): 0.016 ΔF/F
